# Assay: Inhibition of ARTD10 (unknown origin)-induced cell death expressed in human HeLa cells after 10 days by methylene blue staining based colony formation assay
row,SMILES,IC50
1,NC(=O)c1ccc(OCc2ccccc2F)cc1,2 µM
2,NC(=O)c1ccc(Oc2ccc(C=O)cc2)cc1,1 µM

# — BindingDB's records for doi:10.1016/j.ejmech.2018.06.047 (University of Oulu, 2018)
